Data from patent US8906904B2, “Alkoxy pyrazoles as soluble guanylate cyclase activators” (Boehringer Ingelheim International GmbH, priority 2012, dated 2014).
≈ marks a conversion by molar mass, not a printed value.

Columns and labels:
[1] = molecular target: T1, human soluble guanylate cyclase alpha 1 and beta 1 subunits (sGC) (Homo sapiens, UniProt Q02108+Q02153); test: sGC cellular activator assay (cGMP, HTRF); assay type: cell-based; settings: CHO cells stably expressing human sGC alpha 1/beta 1, preincubated with 40 microM ODQ; cGMP readout; assay run with and without 50% human serum, Table 2 does not say which
T1 construct: expressed in transfected cells; host or cells: Chinese hamster ovary (CHO) cells, stably transfected
T1 sequence (Q02108 1-690): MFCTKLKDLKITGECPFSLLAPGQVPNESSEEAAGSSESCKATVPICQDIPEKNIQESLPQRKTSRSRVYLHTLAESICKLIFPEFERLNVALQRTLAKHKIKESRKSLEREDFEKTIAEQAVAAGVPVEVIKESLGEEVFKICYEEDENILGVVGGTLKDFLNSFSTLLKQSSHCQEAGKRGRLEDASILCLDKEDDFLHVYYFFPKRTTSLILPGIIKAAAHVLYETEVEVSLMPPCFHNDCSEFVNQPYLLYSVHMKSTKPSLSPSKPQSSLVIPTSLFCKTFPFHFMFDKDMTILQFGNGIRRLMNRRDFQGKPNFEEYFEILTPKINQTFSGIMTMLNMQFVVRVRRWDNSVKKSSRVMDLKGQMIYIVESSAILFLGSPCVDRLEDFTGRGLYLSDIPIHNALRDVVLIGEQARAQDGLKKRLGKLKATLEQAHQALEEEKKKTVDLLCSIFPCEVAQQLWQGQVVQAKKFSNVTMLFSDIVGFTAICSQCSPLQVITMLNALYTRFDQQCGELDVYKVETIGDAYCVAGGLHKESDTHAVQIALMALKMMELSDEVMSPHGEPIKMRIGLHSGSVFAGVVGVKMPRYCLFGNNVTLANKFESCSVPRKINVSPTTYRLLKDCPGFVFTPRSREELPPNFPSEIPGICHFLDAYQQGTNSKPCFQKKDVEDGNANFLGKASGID
T1 sequence (Q02153 1-619): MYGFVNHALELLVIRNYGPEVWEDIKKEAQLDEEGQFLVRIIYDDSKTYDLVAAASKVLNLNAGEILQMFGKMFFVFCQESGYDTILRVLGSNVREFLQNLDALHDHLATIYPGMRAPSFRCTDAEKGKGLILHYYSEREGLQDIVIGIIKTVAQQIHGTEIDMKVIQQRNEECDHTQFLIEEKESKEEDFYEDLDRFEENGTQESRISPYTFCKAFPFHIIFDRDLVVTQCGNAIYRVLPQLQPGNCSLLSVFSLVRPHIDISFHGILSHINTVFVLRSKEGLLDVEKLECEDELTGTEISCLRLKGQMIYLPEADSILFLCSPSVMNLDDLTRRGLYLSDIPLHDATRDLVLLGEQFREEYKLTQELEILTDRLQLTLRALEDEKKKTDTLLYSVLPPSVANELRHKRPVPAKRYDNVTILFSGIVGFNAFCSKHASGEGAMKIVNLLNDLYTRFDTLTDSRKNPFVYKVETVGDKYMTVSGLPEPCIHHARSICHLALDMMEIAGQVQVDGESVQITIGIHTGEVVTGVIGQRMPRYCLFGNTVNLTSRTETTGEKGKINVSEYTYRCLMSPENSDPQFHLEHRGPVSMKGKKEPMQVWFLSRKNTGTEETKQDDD
Method in brief: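 First, CHO-sGC (human α1β1) cells get 1 h ODQ at 40 microM with IBMX and 0.1% BSA. Finally, cGMP is quantified by HTRF and EC50 computed.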

[2] = Assessment of solubility (McIlvaine buffers, 24 h shake, UPLC-UV); assay type: physicochemical; settings: kinetic from dmso stock
Method in brief: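 Compounds from 10 mM DMSO stocks were shaken for 24 h at room temperature in McIlvaine buffers at pH 2.2, 4.5 and 6.8 (2.5% v/v DMSO final), then filtered. Filtrates were quantified by UPLC-UV at 254 nm against a 50:50 acetonitrile/water reference assumed fully dissolved, as a single determination.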

Row | Structure (SMILES) | EC50 [1] | solubility at 24 h ([2]; pH 2.2, aqueous buffer) | solubility at 24 h ([2]; pH 4.5, aqueous buffer) | solubility at 24 h ([2]; pH 6.8, aqueous buffer)
1 | COc1c(C(=O)O)cnn1-c1cccc(-c2cccc(C)c2OCc2ccc3c(c2C)CCN(C[C@H]2COCCO2)C3)n1 [Compound 142] | 62 nM | 120 µg/mL (≈ 205 µM) | 87 µg/mL (≈ 149 µM) | 93 µg/mL (≈ 159 µM)
2 | COc1c(C(=O)O)cnn1-c1cccc(-c2cccc(C)c2OCc2cc3c(cc2C)CN(C2CCOCC2)C3)n1 [Compound 143] | 160 nM | 160 µg/mL (≈ 288 µM) | 150 µg/mL (≈ 270 µM) | 160 µg/mL (≈ 288 µM)
3 | CC(C)Oc1c(C(=O)O)cnn1-c1cccc(-c2ccccc2OCc2ccc3c(c2)CCN(C2CCOCC2)C3)n1 [Compound 144] | 460 nM | 110 µg/mL (≈ 193 µM) | 89 µg/mL (≈ 157 µM) | 93 µg/mL (≈ 164 µM)
4 | COc1c(C(=O)O)cnn1-c1cccc(-c2cccc(C)c2OCc2cc(C)c3c(c2C)CN(C2CCOCC2)C3)n1 [Compound 145] | 13 nM | 110 µg/mL (≈ 193 µM) | 92 µg/mL (≈ 162 µM) | 94 µg/mL (≈ 165 µM)
5 | CCOc1c(C(=O)O)cnn1-c1cccc(-c2cccc(C)c2OCc2ccc3c(c2C)CCN(CC2CCCOC2)C3)n1 (stereo not shown) [Compound 146] | 23 nM | 100 µg/mL (≈ 168 µM) | 88 µg/mL (≈ 147 µM) | 79 µg/mL (≈ 132 µM)
6 | CCOc1c(C(=O)O)cnn1-c1cccc(-c2cccc(C)c2OCc2ccc3c(c2C)CCN(C(=O)C2CCOCC2)C3)n1 [Compound 147, 5-Ethoxy-1-(6-{3-methyl-2-[5-methyl-2-(tetrahydro-pyran-4-carbonyl)-1,2,3,4-tetrahydro-isoquinolin-6-ylmethoxy]-phenyl}-pyridin-2-yl)-1H-pyrazole-4-carboxylic acid] | 450 nM | 1.2 µg/mL (≈ 1.96 µM) | 3.1 µg/mL (≈ 5.08 µM) | 75 µg/mL (≈ 123 µM)
7 | COCCOc1c(C(=O)O)cnn1-c1cccc(-c2cccc(C)c2OCc2ccc3c(c2C)CCN(C2CCCOC2)C3)n1 (stereo not shown) [Compound 149] | 44 nM | 110 µg/mL (≈ 180 µM) | 78 µg/mL (≈ 127 µM) | 81 µg/mL (≈ 132 µM)
8 | COCCOc1c(C(=O)O)cnn1-c1cccc(-c2cccc(C)c2OCc2ccc3c(c2C)CCN(C2CCOC2)C3)n1 (stereo not shown) [Compound 150] | 91 nM | 100 µg/mL (≈ 167 µM) | 67 µg/mL (≈ 112 µM) | 78 µg/mL (≈ 130 µM)
9 | COCCOc1c(C(=O)O)cnn1-c1cccc(-c2cccc(C)c2OCc2ccc3c(c2C)CCN(C2CCOCC2)C3)n1 [Compound 151] | 130 nM | 110 µg/mL (≈ 180 µM) | 98 µg/mL (≈ 160 µM) | 85 µg/mL (≈ 139 µM)
10 | CCOc1c(C(=O)O)cnn1-c1cccc(-c2cccc(C)c2OCc2ccc3c(c2C)CCN(C[C@@H]2CCCOC2)C3)n1 [Compound 152] | 14 nM | 97 µg/mL (≈ 163 µM) | 74 µg/mL (≈ 124 µM) | 74 µg/mL (≈ 124 µM)
11 | CCOc1c(C(=O)O)cnn1-c1cccc(-c2cccc(C)c2OCc2ccc3c(c2C)CCN(C[C@H]2CCCOC2)C3)n1 [Compound 153] | 26 nM | 87 µg/mL (≈ 146 µM) | 67 µg/mL (≈ 112 µM) | 65 µg/mL (≈ 109 µM)
12 | CCOc1c(C(=O)O)cnn1-c1cccc(-c2cccc(C)c2OCc2ccc3c(c2CC)CCN(C2CCOCC2)C3)n1 [Compound 154] | 28 nM | 85 µg/mL (≈ 142 µM) | 36 µg/mL (≈ 60.3 µM) | 57 µg/mL (≈ 95.5 µM)
13 | CCOc1c(C(=O)O)cnn1-c1cccc(-c2cccc(C)c2OCc2ccc3c(c2C)CCN(C2COC(C)(C)OC2)C3)n1 [Compound 155] | 86 nM | 60 µg/mL (≈ 97.9 µM) | 66 µg/mL (≈ 108 µM) | 73 µg/mL (≈ 119 µM)
14 | CCOc1c(C(=O)O)cnn1-c1cccc(-c2cccc(C)c2OCc2cc3c(c(C(F)(F)F)c2)CN(C2CCOCC2)CC3)n1 [Compound 157] | 25 nM | 94 µg/mL (≈ 148 µM) | 70 µg/mL (≈ 110 µM) | 62 µg/mL (≈ 97.4 µM)
15 | COc1c(C(=O)O)cnn1-c1cccc(-c2cccc(C)c2OCc2cc3c(c(C(F)(F)F)c2)CN(C2CCOCC2)CC3)n1 [Compound 158] | 30 nM | 64 µg/mL (≈ 103 µM) | 43 µg/mL (≈ 69.1 µM) | 41 µg/mL (≈ 65.8 µM)
16 | CCOc1c(C(=O)O)cnn1-c1cccc(-c2cccc(C)c2OCc2ccc3c(c2F)CCN(C2CCOCC2)C3)n1 [Compound 159] | 53 nM | 86 µg/mL (≈ 147 µM) | 55 µg/mL (≈ 93.8 µM) | 51 µg/mL (≈ 86.9 µM)
17 | COc1c(C(=O)O)cnn1-c1cccc(-c2cccc(C)c2OCc2ccc3c(c2C)CCN(S(C)(=O)=O)C3)n1 [Compound 160] | 110 nM | < 0.1 µg/mL | 0.93 µg/mL (≈ 1.65 µM) | 73 µg/mL (≈ 130 µM)
18 | Cc1cc(COc2c(C)cccc2-c2cccc(-n3ncc(C(=O)O)c3OC(C)C)n2)cc2c1CN(C1CCOCC1)CC2 [Compound 161] | 14 nM | 110 µg/mL (≈ 184 µM) | 91 µg/mL (≈ 152 µM) | 97 µg/mL (≈ 163 µM)
19 | CCOc1c(C(=O)O)cnn1-c1cccc(-c2cccc(C)c2OCc2ccc3c(c2C)CCN(C2CCOCC2)CC3)n1 [Compound 162] | 23 nM | 100 µg/mL (≈ 168 µM) | 83 µg/mL (≈ 139 µM) | 82 µg/mL (≈ 137 µM)
20 | CCOc1c(C(=O)O)cnn1-c1cccc(-c2cccc(C)c2OCc2ccc3c(c2C)CCN(CC2CCOC(C)(C)C2)C3)n1 (stereo not shown) [Compound 163] | 55 nM | 110 µg/mL (≈ 176 µM) | 75 µg/mL (≈ 120 µM) | 73 µg/mL (≈ 117 µM)
21 | CCOc1c(C(=O)O)cnn1-c1cccc(-c2cccc(C)c2OCc2ccc3c(c2C)CCN(C2COC2)C3)n1 [Compound 164] | 32 nM | 100 µg/mL (≈ 180 µM) | 72 µg/mL (≈ 130 µM) | 93 µg/mL (≈ 168 µM)
22 | CCOc1c(C(=O)O)cnn1-c1cccc(-c2cccc(C)c2OCc2ccc3c(c2C(F)(F)F)CCN(C2CCOCC2)C3)n1 [Compound 165] | 11 nM | 120 µg/mL (≈ 188 µM) | 58 µg/mL (≈ 91.1 µM) | 39 µg/mL (≈ 61.3 µM)
23 | COc1c(C(=O)O)cnn1-c1cccc(-c2cccc(C)c2OCc2ccc3c(c2C(F)(F)F)CCN(C2CCOCC2)C3)n1 [Compound 166] | 6.6 nM | 110 µg/mL (≈ 177 µM) | 51 µg/mL (≈ 81.9 µM) | 64 µg/mL (≈ 103 µM)
24 | COc1c(C(=O)O)cnn1-c1cccc(-c2cccc(C)c2OCc2ccc3c(c2C)CCN(C2CCOCC2)C3=O)n1 [Compound 167, 5-Methoxy-1-(6-{3-methyl-2-[5-methyl-1-oxo-2-(tetrahydro-pyran-4-yl)-1,2,3,4-tetrahydro-isoquinolin-6-ylmethoxy]-phenyl}-pyridin-2-yl)-1H-pyrazole-4-carboxylic acid] | 30 nM | 2.1 µg/mL (≈ 3.6 µM) | 5.9 µg/mL (≈ 10.1 µM) | 83 µg/mL (≈ 142 µM)
25 | CCOc1c(C(=O)O)cnn1-c1cccc(-c2cccc(C)c2OCc2ccc3c(c2C)CCN(CCOCCO)C3)n1 [Compound 168] | 580 nM | 110 µg/mL (≈ 187 µM) | 90 µg/mL (≈ 153 µM) | 88 µg/mL (≈ 150 µM)
26 | CCOc1c(C(=O)O)cnn1-c1cccc(-c2cccc(C)c2OCc2cc(C)c3c(c2)CCN(C2CCOCC2)C3)n1 [Compound 169] | 13 nM | 120 µg/mL (≈ 206 µM) | 100 µg/mL (≈ 172 µM) | 97 µg/mL (≈ 166 µM)
27 | CCOc1c(C(=O)O)cnn1-c1cccc(-c2cccc(C)c2OCc2ccc3c(c2C)CCN(C[C@H]2COCCO2)C3)n1 [Compound 170] | 28 nM | 120 µg/mL (≈ 200 µM) | 96 µg/mL (≈ 160 µM) | 95 µg/mL (≈ 159 µM)
28 | COc1c(C(=O)O)cnn1-c1cccc(-c2cccc(C)c2OCc2cc(C)c3c(c2)CCN(C2CCOCC2)C3)n1 [Compound 171] | 16 nM | 120 µg/mL (≈ 211 µM) | 99 µg/mL (≈ 174 µM) | 98 µg/mL (≈ 172 µM)
